Measurements published in ChEMBL document CHEMBL1144041, “Docking-based 3D-QSAR study for 11beta-HSD1 inhibitors” (Bioorg Med Chem Lett, 2008).

Molecular target: 11-beta-hydroxysteroid dehydrogenase 1 (Homo sapiens, UniProt P28845)
Assay: Inhibition of 11beta-HSD1

11-beta-hydroxysteroid dehydrogenase 1, sequence (P28845 whole entry): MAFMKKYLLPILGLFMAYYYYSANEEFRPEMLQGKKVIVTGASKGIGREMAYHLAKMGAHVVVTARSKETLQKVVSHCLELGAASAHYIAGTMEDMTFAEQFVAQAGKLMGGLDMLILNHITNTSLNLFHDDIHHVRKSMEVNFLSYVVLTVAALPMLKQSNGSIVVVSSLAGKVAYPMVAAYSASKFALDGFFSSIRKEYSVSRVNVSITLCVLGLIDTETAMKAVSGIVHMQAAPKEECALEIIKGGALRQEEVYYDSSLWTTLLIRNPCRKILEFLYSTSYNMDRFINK

Structure (SMILES)	IC50 [nM]
O=C(Nc1cccc(C(=O)N2CCC[C@H]3CCCC[C@@H]32)c1)c1ccccc1	14.1
CCCc1nnc(C23CC4CC(CC(C4)C2)C3)n1CC	52.5
CC1CCCCN1C(=O)c1ccc(NC(=O)c2ccc(Cl)cc2Cl)cc1 (stereo not drawn)	7940
CCCCn1c(C)nnc1C12CC3CC(CC(C3)C1)C2	72.4
O=C(Nc1ccc(C(=O)N2CCC[C@H]3CCCC[C@@H]32)cc1)c1ccc(Cl)cc1	1100
CC(C)(Oc1ccc(N2CCOCC2)cn1)C(=O)N[C@H]1C2CC3CC1C[C@](C(N)=O)(C3)C2	43.7
CC(C)(Oc1ccc(-n2cccn2)cn1)C(=O)N[C@H]1C2CC3CC1C[C@](C(N)=O)(C3)C2	5.01
Cn1c(-c2ccc(C=O)cc2Cl)nnc1C12CCC(c3nc(-c4ccc(F)cc4)no3)(CC1)CC2	21.9
CC(C)(Oc1ccc(C#N)cn1)C(=O)N[C@H]1C2CC3CC1C[C@](C(N)=O)(C3)C2	28.2

Further compounds by falling IC50, results first:

IC50 [nM]	Structure (SMILES)
1580	O=C(Nc1ccc(C(=O)N2CCC[C@H]3CCCC[C@@H]32)cc1)c1ccccc1Cl
1070	CCC1CCCCN1C(=O)c1ccc(NC(=O)c2ccc(Cl)cc2Cl)cc1 (stereo not drawn)
380	O=C(Cc1ccccc1)Nc1ccc(C(=O)N2CCC[C@H]3CCCC[C@@H]32)cc1
186	CN1CCN(c2ccc(OC(C)(C)C(=O)N[C@H]3C4CC5CC3C[C@](C(N)=O)(C5)C4)nc2)CC1
182	O=C(c1ccc(C(=O)N2CCC[C@H]3CCCC[C@@H]32)cc1)N1CCCc2ccccc21
50.1	O=C(c1ccc(NCc2ccc(F)cc2)cc1)N1CCC[C@H]2CCCC[C@@H]21
46.8	CC(C)(C(=O)N[C@H]1C2CC3CC1C[C@](C(N)=O)(C3)C2)c1ccc(N2CCOCC2)nc1
40.7	CC(C)(Oc1ccc(Cl)cc1)C(=O)N[C@H]1C2CC3CC1C[C@](Cc1nnn[nH]1)(C3)C2
28.8	CNc1ccc(C(C)(C)C(=O)N[C@H]2C3CC4CC2C[C@](C(N)=O)(C4)C3)cn1
21.9	CC(C)(Oc1ccc(Cl)cc1)C(=O)N[C@H]1C2CCCC1C[C@H](C(N)=O)C2
14.1	CC(C)(C(=O)N[C@H]1C2CC3CC1C[C@](C(N)=O)(C3)C2)c1ccc(C#N)cn1
11	CC(C)(Oc1ccc(C#N)cn1)C(=O)N[C@H]1C2COCC1C[C@H](C(N)=O)C2
11	CCCn1c(CC)nnc1C12CC3CC(CC(C3)C1)C2
5.01	CCCCCC12CCC(c3nnc4n3CCCCC4)(CC1)CC2
